Laboratory results taken from PubChem BioAssay (NCI).
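A five-concentration, 48-hour dose response in 96-well plates underlies each endpoint, interpolated linearly between surrounding concentrations. GI50: concentration for 50% inhibition of growth. TGI marks complete inhibition of growth.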

Columns and labels:
Experiment in all cases: NCI anticancer screen, dose series, 48 h
A549 NSCLC = tested on: A549 NSCLC
COLO 205 colon = tested on: COLO 205 colon
HCT-116 colon = tested on: HCT-116 colon
K-562 leukemia = tested on: K-562 leukemia
MALME-3M melanoma = tested on: MALME-3M melanoma
MDA-MB-435 = tested on: MDA-MB-435
MOLT-4 leukemia = tested on: MOLT-4 leukemia
SF-268 CNS = tested on: SF-268 CNS
SK-OV-3 ovarian = tested on: SK-OV-3 ovarian
UACC-257 melanoma = tested on: UACC-257 melanoma

SMILES	GI50 (A549 NSCLC) [µM]	TGI (A549 NSCLC) [µM]	GI50 (COLO 205 colon) [µM]	TGI (COLO 205 colon) [µM]	GI50 (HCT-116 colon) [µM]	TGI (HCT-116 colon) [µM]	GI50 (K-562 leukemia) [µM]	TGI (K-562 leukemia) [µM]	GI50 (MALME-3M melanoma) [µM]	TGI (MALME-3M melanoma) [µM]	GI50 (MDA-MB-435) [µM]	TGI (MDA-MB-435) [µM]	GI50 (MOLT-4 leukemia) [µM]	TGI (MOLT-4 leukemia) [µM]	GI50 (SF-268 CNS) [µM]	TGI (SF-268 CNS) [µM]	GI50 (SK-OV-3 ovarian) [µM]	TGI (SK-OV-3 ovarian) [µM]	GI50 (UACC-257 melanoma) [µM]	TGI (UACC-257 melanoma) [µM]
Oc1c(CN2CCCC2)cc(CSCc2ccccc2)c2cccnc12	1.73	10.6	4.82	18.7	0.694	10.1	0.551	10.6	2.04	9.06	1.4	13.6	0.671	2.74	0.752	14.9	0.666	2.82	2.14	7.03
O=C1C(Cl)=C(c2ccc([N+](=O)[O-])cc2)C(=O)c2c(O)cccc21	–	25	–	3.66	–	3.55	–	> 100	–	4.49	–	4.8	–	> 100	–	22.4	–	8.64	–	4.84
CC12CC=CCC1CCC1C2CCC2(C)C(c3ccc(=O)oc3)CCC12O (centres undefined)	0.032	0.119	0.36	1.45	0.0349	0.143	0.0967	2.27	0.104	0.364	0.179	0.727	0.0292	0.113	0.0475	0.268	0.276	0.688	0.246	0.769
NNS(=O)(=O)c1cc(C(=O)O)cc(C(=O)O)c1	–	> 100	–	> 100	–	> 100	–	> 100	–	> 100	–	> 100	–	> 100	–	> 100	–	> 100	–	> 100
CNCCNc1nc2ccccc2c2c(=O)c3cc(F)ccc3sc12	1.65	3.29	1.67	3.36	1.49	2.81	1.64	4.35	1.67	3.1	1.71	3.22	1.72	3.5	1.69	4.17	2.13	7.58	1.73	3.25
N=c1ccc2nc3c(cc(N)c4ccccc43)oc-2c1	0.295	1.05	0.237	0.892	0.167	0.353	0.298	1.18	0.169	0.362	0.182	0.338	0.287	1.05	0.431	1.75	0.477	1.73	0.271	0.819
NC(=S)N/N=C1\CCCC1C(O)(C(F)(F)Cl)C(F)(F)Cl (centres undefined)	–	> 10	–	> 10	–	> 10	–	> 10	–	> 10	–	> 10	–	> 10	–	> 10	–	> 10	–	> 10
O=C(N/N=C/c1ccc(Cl)cc1)c1[nH]c2ccc(Cl)cc2c1-c1ccccc1	0.348	29.3	0.202	0.406	0.114	1.56	0.206	12.7	17.8	76.4	0.245	0.72	0.108	> 32	0.161	> 42.3	0.387	–	7.42	> 100
COC(=O)[C@H]1[C@H]2C[C@@H]3c4[nH]c5cc(OC)ccc5c4CCN3C[C@H]2C[C@@H](OC(=O)/C=C/c2cc(OC)c(OC)c(OC)c2)[C@@H]1OC	8.89	> 100	3.69	14.8	3.18	9.57	3.24	38.4	18.7	50.6	3.22	19.4	3.33	> 100	9.48	> 100	15.4	32.3	18.4	68.1
Nc1nc(N)nc(CC(=O)O)n1	–	> 100	–	> 100	–	> 100	–	> 100	–	> 100	–	> 100	–	> 100	–	> 100	–	> 100	–	> 100
Cc1cc(=O)oc2cc(OC(=O)N(CCCl)CCCl)ccc12	–	> 100	–	> 100	–	> 100	–	> 100	–	> 100	–	> 100	–	> 100	–	> 100	–	> 100	–	> 100
Clc1ccc2ns[s+]c2c1	–	> 100	–	> 44.9	–	> 100	–	> 100	–	> 100	–	> 100	–	> 100	–	> 100	–	> 100	–	> 100
